Experimental data published in ChEMBL document CHEMBL4680273, “Teixobactin: A Paving Stone toward a New Class of Antibiotics?” (2020).
Values after ≈ are worked out from the molar mass of the structure shown.

Tests used:
Format in all cases: functional
Bacillus subtilis [1] = test: Antibacterial activity against Bacillus subtilis ATCC 6051 incubated for 16 hrs by two-fold serial dilution method
Enterococcus durans = test: Antibacterial activity against Enterococcus durans ATCC 6056 incubated for 16 hrs by two-fold serial dilution method
Streptococcus salivarius = test: Antibacterial activity against Streptococcus salivarius ATCC 13419 incubated for 16 hrs by two-fold serial dilution method
Staphylococcus aureus [2] = test: Antibacterial activity against Staphylococcus aureus ATCC 29213 incubated for 16 hrs by two-fold serial dilution method
[3] = test system: Staphylococcus epidermidis; test: Antibacterial activity against Staphylococcus epidermidis ATCC 14990 incubated for 16 hrs by two-fold serial dilution method
Staphylococcus aureus [4] = test: Antibacterial activity against Staphylococcus aureus TH4112 incubated for 16 to 20 hrs by CLSI-based broth microdilution method; conditions: time 16-20 hrs
Staphylococcus aureus [5] = test: Antibacterial activity against methicillin- resistant Staphylococcus aureus TH4115 incubated for 16 to 20 hrs by CLSI-based broth microdilution method; conditions: time 16-20 hrs
Staphylococcus aureus [6] = test: Antibacterial activity against Staphylococcus aureus 25923 incubated for 24 hrs by CLSI based broth microdilution method
Staphylococcus aureus [7] = test: Antibacterial activity against Staphylococcus aureus
Bacillus subtilis [8] = test: Antibacterial activity against Bacillus subtilis ATCC 6051 incubated for 24 hrs by CLSI based broth microdilution method
Staphylococcus aureus [9] = test: Antibacterial activity against Staphylococcus aureus ATCC 29213 incubated for 20 hrs by CLSI-based broth microdilution checkerboard method
Staphylococcus aureus [10] = test: Antibacterial activity against methicillin resistant Staphylococcus aureus
Bacillus spizizenii = test: Antibacterial activity against Bacillus subtilis ATCC 6633 by M07-A9 CLSI method
Staphylococcus aureus [11] = test: Antibacterial activity against methicillin resistant Staphylococcus aureus USA300
Staphylococcus aureus [12] = test: Antibacterial activity against methicillin resistant Staphylococcus aureus ATCC 33591 infected in iv dosed CD1 mouse model of septicemia assessed as protection against lethal infection administered as single dose starting from 1 hr post infection and measured 48 hrs post infection relative to control; conditions: ATCC 33591, iv, time 47 hrs, read-out: PD50

Question: With `CC[C@H](C)[C@H](NC(=O)[C@@H](Cc1ccccc1)NC)C(=O)N[C@@H](CO)C(=O)N[C@H](CCC(N)=O)C(=O)N[C@@H](C(=O)N[C@H](C(=O)N[C@@H](CO)C(=O)N[C@H]1C(=O)N[C@@H](CCCCNS(=O)(=O)c2ccc(-c3c4ccc(=[N+](CC)CC)cc-4oc4cc(N(CC)CC)ccc34)c(S(=O)(=O)[O-])c2)C(=O)N[C@@H](CCCNC(=N)N)C(=O)N[C@@H]([C@@H](C)CC)C(=O)O[C@H]1C)[C@@H](C)CC)[C@@H](C)CC` as the compound, how does the MIC (Bacillus subtilis [1]) read?
Answer: The MIC was 4 µg/mL (≈ 2.17 µM).

Question: And the MIC (Enterococcus durans)?
Answer: The MIC was 8 µg/mL (≈ 4.34 µM).

Question: And the MIC (Streptococcus salivarius)?
Answer: The MIC was 4 µg/mL (≈ 2.17 µM).

Question: What about the MIC (Staphylococcus aureus [2]) of the same compound?
Answer: The MIC was 8 µg/mL (≈ 4.34 µM).

Question: What about the MIC [3] of the same compound?
Answer: The MIC was 8 µg/mL (≈ 4.34 µM).

Question: How did the MIC (Staphylococcus aureus [4]) turn out when `CC[C@H](C)[C@H](NC(=O)[C@@H](Cc1ccc(-c2ccccc2)cc1)NC)C(=O)N[C@@H](CO)C(=O)N[C@H](CCCNC(=N)N)C(=O)N[C@@H](C(=O)N[C@H](C(=O)N[C@@H](CO)C(=O)N[C@H]1C(=O)N[C@@H](C)C(=O)N[C@@H](C[C@H]2CNC(=N)N2)C(=O)N[C@@H]([C@@H](C)CC)C(=O)O[C@H]1C)[C@@H](C)CC)[C@@H](C)CC` was run?
Answer: The MIC was 0.25 µg/mL (≈ 0.186 µM).

Question: What about the MIC (Staphylococcus aureus [5]) of the same compound?
Answer: The MIC was 0.25 µg/mL (≈ 0.186 µM).

Question: How did the MIC (Staphylococcus aureus [6]) turn out when `CC[C@H](C)[C@H](NC(=O)[C@@H](Cc1ccccc1)NC)C(=O)N[C@@H](CO)C(=O)N[C@H](CCC(N)=O)C(=O)N[C@@H](C(=O)N[C@H](C(=O)N[C@@H](CO)C(=O)N[C@H]1C(=O)N[C@@H](C)C(=O)N[C@@H](CCCNC(=N)N)C(=O)N[C@@H]([C@@H](C)CC)C(=O)O[C@H]1C)[C@@H](C)CC)[C@@H](C)CC` was run?
Answer: The MIC was 1.6 µg/mL (≈ 1.29 µM).

Question: And the MIC (Staphylococcus aureus [7])?
Answer: Its MIC is 2 µg/mL (≈ 1.61 µM).

Question: What about the MIC (Bacillus subtilis [8]) of the same compound?
Answer: Its MIC is 0.4 µg/mL (≈ 0.321 µM).

Question: Which MIC (Staphylococcus aureus [9]) does the source give for `CC[C@H](C)[C@H](NC(=O)[C@@H](Cc1ccccc1)NC)C(=O)N[C@@H](CO)C(=O)N[C@H](CCC(N)=O)C(=O)N[C@@H](C(=O)N(C)[C@H](C(=O)N[C@@H](CO)C(=O)N[C@H]1C(=O)N[C@@H](C)C(=O)N[C@@H](CCCCN)C(=O)N[C@@H]([C@@H](C)CC)C(=O)O[C@H]1C)[C@@H](C)CC)[C@@H](C)CC` here?
Answer: Its MIC is 16 µg/mL.

Question: How did the MIC (Staphylococcus aureus [10]) turn out when `CC[C@H](C)[C@H](NC(=O)[C@@H](Cc1ccccc1)NC)C(=O)N[C@@H](CO)C(=O)N[C@H](CCC(N)=O)C(=O)N[C@@H](C(=O)N[C@H](C(=O)N[C@@H](CO)C(=O)N[C@H]1C(=O)N[C@@H](C)C(=O)N[C@@H](Cc2ncc[nH]2)C(=O)N[C@@H]([C@@H](C)CC)C(=O)O[C@H]1C)[C@@H](C)CC)[C@@H](C)CC` was run?
Answer: The MIC was 2 µg/mL (≈ 1.63 µM).

Question: And the MIC (Bacillus spizizenii)?
Answer: The MIC was 8 µg/mL (≈ 6.53 µM).

Question: What about the MIC (Staphylococcus aureus [11]) of the same compound?
Answer: Its MIC is 16 µg/mL (≈ 13.1 µM).

Question: For `CN[C@H](CC(C)C)C(=O)N[C@H]1C(=O)N[C@@H](CC(N)=O)C(=O)N[C@H]2C(=O)N[C@H]3C(=O)N[C@H](C(=O)N[C@H](C(=O)O)c4cc(O)cc(O)c4-c4cc3ccc4O)[C@H](O)c3ccc(c(Cl)c3)Oc3cc2cc(c3O[C@@H]2O[C@H](CO)[C@@H](O)[C@H](O)[C@H]2O[C@H]2C[C@](C)(N)[C@H](O)[C@H](C)O2)Oc2ccc(cc2Cl)[C@H]1O` [VANCOMYCIN], which ED50 (Staphylococcus aureus [12]) is on record?
Answer: Its ED50 is 2.75 mg/kg.
